Assay results published in ChEMBL document CHEMBL1201862, “PubChem BioAssay data set” (2004).
Active and inactive are the calls of the source. For most assays here, no stated cut-off is given here; in the data, actives have a measured EC50 and inactives only a lower limit.

Assays:
[1] = Luminescence Cell-Based Dose Retest to Confirm Inhibitors of Cancer Stem Cells. [Related pubchem assays (depositor defined):AID2717, AID2721]; type: functional; details: Homo sapiens
H9c2 = experiment: cells; type: functional, cell-based; details: Rattus norvegicus, H9c2, Myocardium
[2] = NIH-3T3 fibroblast cytotoxicity, dose response, cytotoxicity control, cell-based, fluorescence, Alamar Blue, secondary assay (AID 2327); type: functional;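 further: NIH-3T3 mouse fibroblasts cultured with fluconazole at 8 µg/mL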
[3] = C. albicans growth with fluconazole, confirmation, fluorescence, retest (AID 2467); type: functional, cell-based
Cytochrome P450 2C9 = Cytochrome P450 2C9 (Homo sapiens, UniProt P11712)
[4] = Luminescence Cell-Based Dose Response HTS to Identify Activators of Luciferase Translation or Activity in H4 […] Cells. [Related pubchem assays: 1829 (Project Summary), 1814 (Primary HTS)]; type: functional
H4 = experiment: Luminescence Cell-Based Dose Response HTS to Identify Activators of 5'UTR Stem-Loop Driven Prion Protein mRNA Translation in H4 Neuroglioblastoma Cells. [Related pubchem assays: 1829 (Project Summary), 1814 (Primary HTS)]; type: functional; details: Homo sapiens
[5] = Luminescence Cell-Based Dose Confirmation HTS to Identify Activators of 5'UTR Stem-Loop Driven Alpha-Synuclein mRNA Translation in H4 Neuroglioblastoma Cells. [Related pubchem assays: 1829 (Project Summary), 1814 (Primary HTS)]; type: functional
[6] = inhibitors of firefly luciferase expression or activity, dose response, H4 neuroglioma cells, luminescence (AID 1990); type: functional, cell-based
[7] = P. falciparum Dd2 growth inhibitors, dose response, SYBR Green, cherry-picked samples (AID 1159567); type: functional, cell-based
[8] = target: Luciferin 4-monooxygenase (Photinus pyralis, UniProt P08659); experiment: firefly luciferase enzyme inhibitors, dose response, biochemical, luminescence (AID 1891)
[9] = Luminescence Cell-Based Dose Confirmation HTS to Identify Inhibitors of Platelet Dense Granule Release. [Related pubchem assays: 1663 (Primary HTS), 1678 (Summary of Project)]; type: functional
[10] = cytotoxicity toward NIH3T3 fibroblasts, dose response, counter-screen, cell-based, ATP luminescence, mouse fibroblasts (AID 2010); type: functional;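 further: cells exposed to compound for about 90 hours before reading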
[11] = inhibitors of intracellular T. cruzi replication, confirmation, NIH3T3 host cells, beta-gal luminescence (AID 2044); type: functional, cell-based;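 further: intracellular parasites grown in NIH/3T3 mouse fibroblasts as host cells; luminescent beta-galactosidase reporter signal from transgenic T. cruzi replicating inside host cells; inhibitors lower the luminescence signal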
[12] = target: T1, Corticotropin-releasing factor receptor 2/Corticotropin-releasing factor-binding protein (Homo sapiens, UniProt P24387+Q13324); experiment: activators of CRF receptor 2 with binding protein – uHTS hits, confirmation (AID 602473); type: functional; details: read-out: EC50_Mean
T1 sequence (Q13324 whole entry): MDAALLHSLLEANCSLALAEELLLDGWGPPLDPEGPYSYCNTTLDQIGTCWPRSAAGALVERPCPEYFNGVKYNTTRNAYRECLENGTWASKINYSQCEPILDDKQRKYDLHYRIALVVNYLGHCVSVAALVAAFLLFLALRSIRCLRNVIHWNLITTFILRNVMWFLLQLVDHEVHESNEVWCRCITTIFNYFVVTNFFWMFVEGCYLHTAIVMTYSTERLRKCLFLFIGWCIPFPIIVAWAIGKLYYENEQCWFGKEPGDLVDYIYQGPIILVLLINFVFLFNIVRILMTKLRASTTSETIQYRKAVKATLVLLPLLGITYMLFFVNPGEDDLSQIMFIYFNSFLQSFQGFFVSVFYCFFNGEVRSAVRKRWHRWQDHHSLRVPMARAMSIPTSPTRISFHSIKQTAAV
T1 sequence (P24387 whole entry): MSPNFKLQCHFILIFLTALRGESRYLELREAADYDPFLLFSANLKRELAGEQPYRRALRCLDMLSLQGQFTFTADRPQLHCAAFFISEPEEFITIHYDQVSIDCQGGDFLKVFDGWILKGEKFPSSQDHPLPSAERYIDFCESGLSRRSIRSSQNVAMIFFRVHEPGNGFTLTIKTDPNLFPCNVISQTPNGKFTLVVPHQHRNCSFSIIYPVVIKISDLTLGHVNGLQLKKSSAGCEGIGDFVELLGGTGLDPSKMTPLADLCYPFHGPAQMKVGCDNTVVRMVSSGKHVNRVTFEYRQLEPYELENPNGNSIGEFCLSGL

Streptococcus = experiment: Group A Streptococcus viability loss, dose response, counter-screen for streptokinase expression inhibitor project, luminescence, BacTiterGlo (AID 1915); type: functional, organism-based; details: Streptococcus;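 further: potency for reduction of bacterial viability or growth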
Streptokinase A = target: T2, Streptokinase A (Streptococcus pyogenes serotype M1, UniProt P10520); experiment: S. pyogenes streptokinase expression inhibitors, potency, dose response, plasminogen activation absorbance, OD405 (AID 1914); type: functional, Streptococcus pyogenes M1 GAS;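 further: secreted streptokinase activity via plasminogen activation per viability signal from cell pellet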
T2 sequence (P10520 whole entry): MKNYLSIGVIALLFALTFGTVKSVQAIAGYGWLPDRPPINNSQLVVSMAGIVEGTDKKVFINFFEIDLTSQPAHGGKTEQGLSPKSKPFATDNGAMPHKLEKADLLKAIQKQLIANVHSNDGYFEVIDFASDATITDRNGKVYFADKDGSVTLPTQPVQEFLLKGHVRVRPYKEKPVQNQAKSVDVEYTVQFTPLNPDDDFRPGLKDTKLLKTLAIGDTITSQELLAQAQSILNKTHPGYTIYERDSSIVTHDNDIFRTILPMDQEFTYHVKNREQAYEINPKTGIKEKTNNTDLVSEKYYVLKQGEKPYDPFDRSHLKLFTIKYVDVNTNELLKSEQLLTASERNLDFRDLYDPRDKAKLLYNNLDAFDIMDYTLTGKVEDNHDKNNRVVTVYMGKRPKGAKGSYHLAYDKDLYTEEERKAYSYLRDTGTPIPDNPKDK

[13] = test system: Streptococcus sp. 'group A'; experiment: growth inhibition of control SK(-) GAS strain, dose response, counter-screen for streptokinase expression inhibitor project, luminescence, kanamycin, BacTiterGlo, confirmation (AID 1900); type: functional, organism-based; details: Streptococcus sp. 'group A'
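Wherever IC50 is given: confirmatory concentration-response retest of ultra-high-throughput screening hits for modulation of myocardial damage; cell death induced by hydrogen peroxide oxidative stress; compound pretreatment for 60 min then peroxide exposure for 2 h; potency is for protecting the cells against peroxide damage rather than for killing them.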

Chain of Luciferin 4-monooxygenase (P08659 whole entry): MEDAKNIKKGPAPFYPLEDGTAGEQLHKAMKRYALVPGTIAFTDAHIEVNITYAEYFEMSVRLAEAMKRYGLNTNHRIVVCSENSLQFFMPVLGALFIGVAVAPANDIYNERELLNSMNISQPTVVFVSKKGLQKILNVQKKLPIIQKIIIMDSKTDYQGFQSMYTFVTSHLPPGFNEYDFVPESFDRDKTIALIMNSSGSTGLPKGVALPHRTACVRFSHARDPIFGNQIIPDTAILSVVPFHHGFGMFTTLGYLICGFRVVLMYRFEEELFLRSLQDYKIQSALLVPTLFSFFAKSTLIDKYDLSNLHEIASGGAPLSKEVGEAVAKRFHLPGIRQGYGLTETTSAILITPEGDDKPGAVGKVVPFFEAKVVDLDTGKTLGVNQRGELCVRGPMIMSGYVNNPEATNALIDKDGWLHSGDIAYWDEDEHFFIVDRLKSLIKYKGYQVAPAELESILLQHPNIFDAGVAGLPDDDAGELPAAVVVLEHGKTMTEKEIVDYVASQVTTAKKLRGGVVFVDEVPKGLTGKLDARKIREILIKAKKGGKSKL
Chain of Cytochrome P450 2C9 (P11712 whole entry): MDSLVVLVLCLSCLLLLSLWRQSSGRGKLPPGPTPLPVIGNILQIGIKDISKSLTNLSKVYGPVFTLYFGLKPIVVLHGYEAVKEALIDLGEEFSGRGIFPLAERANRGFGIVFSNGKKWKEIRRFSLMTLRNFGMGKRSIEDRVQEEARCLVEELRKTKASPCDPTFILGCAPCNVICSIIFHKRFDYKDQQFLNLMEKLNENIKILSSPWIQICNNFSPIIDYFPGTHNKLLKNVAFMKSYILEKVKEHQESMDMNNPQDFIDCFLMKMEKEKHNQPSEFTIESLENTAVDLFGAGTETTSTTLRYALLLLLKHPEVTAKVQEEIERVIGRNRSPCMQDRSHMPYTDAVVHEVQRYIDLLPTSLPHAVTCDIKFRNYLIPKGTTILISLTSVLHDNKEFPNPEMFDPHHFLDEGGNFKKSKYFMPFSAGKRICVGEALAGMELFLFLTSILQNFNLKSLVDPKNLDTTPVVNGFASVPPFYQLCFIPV

## CCc1ccc(CNC(=O)C2CCN(c3nnc(C)c4c(C)n(-c5ccc(C)cc5)nc34)CC2)cc1
[1]
  AC50: 3.85 µM (active)

## CC1CCN(C(=O)COC(=O)c2nnc(O)c3ccccc23)CC1
H9c2
  IC50: > 79 µM (inactive)

## Cc1nn2c(nc(O)c3ccccc32)c1C=O
[2]
  EC50: > 160 µM (inactive)
[3]
  EC50: 2.16 µM (active)
Cytochrome P450 2C9
  AC50: 15.8 µM (inconclusive)

## CCCCc1c(C)nn(-c2nnc3c4ccccc4n(C)c3n2)c1C
[4]
  EC50: 5.26 µM (active)
H4
  EC50: 15.8 µM (active)
[5]
  EC50: > 120 µM (not active)

## CCCOc1ccc(C2=NNC(=O)CC2)cc1
[6]
  EC50: < 0.1 µM (active)

## COc1ccc(S(=O)(=O)N[C@@H]2CC[C@H](CCn3cc(-c4ccccc4F)nn3)O[C@@H]2CO)cc1
[7]
  AC50: 8.67 µM (active)

## COc1cccc(NC(=O)CN(C)C(=O)CCCc2nc(O)c3ccccc3n2)c1
H9c2
  IC50: > 79 µM (inactive)

## NC(=O)N1CCC2(CC1)NC(=O)N(c1ccccc1)N2
[2]
  EC50: > 150 µM (inconclusive)

## CCc1nc(NC(C)C)c2oc3ccccc3c2n1
[8]
  EC50: > 112 µM (not active)
[9]
  EC50: > 112 µM (not active)

## C=CCN1c2ccccc2[C@]23C[C@@H](C(=O)OC)N(C(=O)c4cc(C)oc4C)C2=NC(C(=O)OC)=C(C(=O)OC)[C@H]13
[4]
  EC50: > 120 µM (not active)
H4
  EC50: > 120 µM (not active)
[5]
  EC50: 9.07 µM (active)

## Cc1ccc(NC(S)=Nc2cccc3cnccc23)cc1C
[1]
  AC50: 62.1 µM (active)

## O=C(c1ccc2c(c1)OCO2)N1CCC2(CC1)Oc1ccc(Cl)cc1C(=O)C21CC(c2cccnc2)=NO1 (configuration not stated)
[2]
  EC50: > 150 µM (inactive)
[3]
  EC50: 2.08 µM (active)

## CC(=O)c1cccc(NC(=O)COC(=O)[C@@H](NC(=O)OCc2ccccc2)C(C)C)c1
[8]
  EC50: > 112 µM (not active)
[9]
  EC50: > 112 µM (not active)

## CCNS(=O)(=O)c1ccc(NC(=O)Nc2cccc(C(F)(F)F)c2)cc1
[1]
  AC50: 7.58 µM (active)
[10]
  EC50: > 60 µM (not active)
[11]
  EC50: 3.63 µM (active)

## O=C(COc1ccccc1F)Nc1nc(-c2ccccn2)cs1
H9c2
  IC50: > 79 µM (inactive)

## C=CCn1c[n+](CC(=O)c2ccc(Br)s2)c2ccccc21
[2]
  EC50: > 160 µM (inactive)
[3]
  EC50: > 38 µM (not active)

## O=Nc1c(O)n(Cc2c(Cl)cccc2Cl)c2ccccc12
[8]
  EC50: > 112 µM (not active)
[9]
  EC50: > 112 µM (not active)
[12]
  EC50: 4.67 µM (active)

## COc1ccc2c3c([nH]c2c1)[C@@H](CO)N(Cc1ccccc1F)CC31CCN(C(=O)C2CCOCC2)CC1
[7]
  AC50: 6.46 µM (active)

## Cn1cccc1/C=C1\SC(=S)N(Nc2ccccc2)C1=O
[1]
  AC50: 0.978 µM (active)
[10]
  EC50: 3.85 µM (active)
[11]
  EC50: 2.67 µM (active)

## CC1CCN(CCCNC(=O)c2nnc(O)c3ccccc23)CC1
H9c2
  IC50: 48.9 µM (inactive)

## CSc1ccc(C2c3[nH]c4ccccc4c3CCN2C(=O)c2ccnn2C)cc1 (configuration not stated)
[2]
  EC50: > 150 µM (inactive)
[3]
  EC50: 2.7 µM (active)

## Clc1ccccc1Nc1ncnc(-n2cccc2)n1
[4]
  EC50: 1.7 µM (active)
H4
  EC50: 6.97 µM (active)
[5]
  EC50: 0.153 µM (active)

## COc1ccc2nc(O)c(CN(CCc3ccccc3)Cc3nnnn3CC3CCCO3)cc2c1 (configuration not stated)
H9c2
  IC50: 14.6 µM (active)

## CN(C)S(=O)(=O)c1cccc(NC(=O)COC(=O)c2ccc([N+](=O)[O-])o2)c1
H9c2
  IC50: 10.3 µM (active)

## CO[C@@H]1CN(C)C(=O)c2cc(NC(=O)Nc3cccc(Cl)c3)ccc2OC[C@@H](C)NC[C@@H]1C
[7]
  AC50: 9.36 µM (active)

## NC(=NOC(=O)c1ccccc1Cl)c1nonc1N
[8]
  EC50: 1.11 µM (active)
[9]
  EC50: 4.54 µM (active)

## O=C(CC1Oc2ccccc2NC1=O)NC1CC1 (configuration not stated)
[8]
  EC50: > 112 µM (not active)
[9]
  EC50: > 112 µM (not active)

## O=C1CN(S(=O)(=O)c2ccccc2)C[C@H]2[C@H](c3ccc(C#CCc4ccccc4)cc3)[C@@H](CO)N12
[7]
  AC50: 4.06 µM (active)

## C/C(=N\NC(=O)c1cccnc1)c1ccc(OC2OCCOC2Oc2ccc(/C(C)=N/NC(=O)c3cccnc3)cc2)cc1 (configuration not stated)
H9c2
  IC50: > 79 µM (inactive)

## O=C(NCCSc1ccccc1)c1cncc(Br)c1
[4]
  EC50: 5.57 µM (active)
H4
  EC50: 9.26 µM (active)
[5]
  EC50: 30.1 µM (active)

## COc1ccc2nc(O)c(CN(Cc3ccco3)Cc3nnnn3Cc3ccccc3)cc2c1
H9c2
  IC50: > 79 µM (inactive)

## Cc1nnc(NC(=O)c2c(-c3ccccc3Cl)noc2C)s1
[2]
  EC50: 32.1 µM (active)
[3]
  EC50: 4.42 µM (active)

## CNC(=S)N/N=C/c1cn(Cc2ccc(C)cc2)c2ccccc12
Streptococcus
  EC50: 28 µM (active)
Streptokinase A
  EC50: 74.1 µM (active)
[1]
  AC50: 3.07 µM (active)
[13]
  EC50: 5.29 µM (active)

## COc1ccc(-n2c(S)nnc2-c2cccc(C)c2[N+](=O)[O-])cc1
[2]
  EC50: > 150 µM (inactive)
[3]
  EC50: 1.7 µM (active)

## O=C(N/N=C/c1ccncc1)c1ccc(COc2cccc3cccnc23)cc1
H9c2
  IC50: 14.3 µM (active)

## COC(=O)c1sc(NC(=O)c2c(C)noc2C)nc1C
[8]
  EC50: 30.6 µM (active)
[9]
  EC50: > 112 µM (not active)

## CC1CCC2C(=O)N(c3ccc(NC4CCCCC4)c([N+](=O)[O-])c3)C(=O)C2C1 (configuration not stated)
[1]
  AC50: < 0.16 µM (active)

## CSc1nnc2c(n1)c(C)nn2-c1ccc(C)cc1
[4]
  EC50: 16.1 µM (active)
H4
  EC50: 4.22 µM (active)
[5]
  EC50: 0.114 µM (active)

## N#C/C(=C\c1ccc(Cl)cc1)c1nc2ccc[nH]c-2n1
[4]
  EC50: 14 µM (active)
H4
  EC50: 44 µM (active)
[5]
  EC50: > 120 µM (not active)

## Cc1ccc2occ(/C=N/NC(=O)c3ccccc3O)c(=O)c2c1
[2]
  EC50: > 150 µM (inconclusive)
[3]
  EC50: > 38 µM (not active)

## COc1ccc(NC(=O)N(C)C[C@H]2OCc3ccccc3-c3c(n(C)c4ccccc34)C(=O)N([C@H](C)CO)C[C@@H]2C)c(OC)c1
[7]
  AC50: 7.42 µM (active)

## COc1ccc(CN(C)C(=O)C(Cc2ccccc2)NC(=O)c2ccccc2)cc1F (configuration not stated)
H9c2
  IC50: > 79 µM (inactive)

## CC(=O)Oc1ccc(-c2csc(Nc3ccc(Cl)cn3)n2)cc1
[1]
  AC50: 5.14 µM (active)

## CNC(S)=NCCc1ccc(OC)c(OC)c1
[8]
  EC50: > 112 µM (not active)
[9]
  EC50: > 112 µM (not active)

## CCOc1ccccc1-c1nc(C(N)=O)c2nc(O)n(-c3cccc(C)c3)c2n1
[8]
  EC50: > 112 µM (not active)
[9]
  EC50: > 112 µM (not active)

## O=C(c1ccccc1)N1CCN(CC#Cc2ccccc2)CC1
[4]
  EC50: 9.34 µM (active)
H4
  EC50: 6.67 µM (active)
[5]
  EC50: 8.44 µM (active)

## Cc1nn(-c2ccccc2)c(C)c1/C=N/NC(=O)c1cc(C2CC2)[nH]n1
H9c2
  IC50: > 79 µM (inactive)

## Cc1[nH]c2ccccc2c1C(Nc1nccs1)c1ccncc1 (configuration not stated)
[8]
  EC50: > 112 µM (not active)
[9]
  EC50: 14.6 µM (active)
